Data published in patent US8455510B2.
Read-outs that look alike come from different tables or passages of the source.

Key:
in vivo = assay type: in vivo; settings: nude, mouse, in vivo
[1] = Immunosuppressive activity assay: cytotoxicity; assay type: cell-based
[2] = system: normal mouse spleen B lymphocytes induced by LPS; experiment: 3H-TdR incorporation, LPS-induced B lymphocyte proliferation; assay type: cell-based, BALB/c mice; settings: read-out: IC50, proliferation of B lymphocytes induced by LPS
Experimental: ^3H-thymidine incorporation was adopted to measure the effect of the in vitro administered compound on the proliferation function of the spleen lymphocytes of normal mice induced by a mixed culture of mitogen/allogeneic mouse spleen lymphocytes, and evaluate the in vitro immunosuppressive activity of the compound.
Measurement of the effects of compounds on the proliferation function of mouse spleen lymphocytes induced by mitogen by ^3H-TdR incorporation: 100 μl cell suspension of mouse spleen lymphocytes was inoculated on a 96-well plate (4×10^5 per well), followed by addition of 50 μl of ConA (final concentration: 5 μg/ml), 50 μl of LPS (final concentration: […]) or 50 μl of compound at different concentrations. The total volume of each well was 200 μl. The test was carried out in triplicate wells for each concentration, and included control wells without ConA/LPS or the compound. After the 96-well plate was placed in an incubator at 37° C. with 5% CO2 for 48 hours, 25 μl of ^3H-thymidine (10 μCi/ml) was added in each well 8 hours before the end of incubation. […] The amount of ^3H-TdR incorporated in cell DNA was determined by a Beta cell counter (MicroBeta Trilux, PerkinElmer), and the cell proliferation was represented as a cpm value.

[3] = system: DNFB-induced delayed type hypersensitivity reaction; experiment: DNFB-induced delayed type hypersensitivity reaction in mice; assay type: in vivo, BALB/c mice; settings: 1.5 mg/kg/d, intraperitoneal injection; model control 0.175 mm
Experimental: The delayed type hypersensitivity (DTH) reaction in mice was induced by DNFB to evaluate the inhibition effect of the compound on DTH in vivo. […] Preparation method: the compound was dissolved in anhydrous alcohol to prepare a stock solution (50 mg/ml), which was diluted to the desired concentration when use by using a solution of 5% PEG400, 5% Tween-80 in sterile water as a solvent. […] DNFB combined with dermal protein to form a complete antigen after sensitizing on feet of mice. One week later, mice were attacked by DNFB on ears to induce a local delayed allergic reaction, i.e., the delayed type hypersensitivity reaction to cause ear swelling, while the delayed type hypersensitivity reaction would not be observed on the ear which had not been attacked. Therefore, the ear swelling can reflect the level of the delayed type hypersensitivity reaction in mice induced by DNFB. (1) 20 μl of 0.5% DNFB solution in a mixture of acetone and olive oil (4:1) as a solvent was applied on both hind legs of mice for sensitization. […] (4) Thickness of the left and right ears of the mice was measured by a micrometer screw gauge, and the swelling was calculated by subtracting the thickness of the left ear from thickness of the right ear.

[4] = system: SRBC-induced specific antibody-producing cells in spleen lymphocytes; experiment: Quantitative hemolysis of sheep red blood cells (QHS) assay; assay type: in vivo, BALB/c mice; settings: 1.5 mg/kg, intraperitoneal injection
Text: It is a classic experimental method to determine the generation of antigen-specific antibody with SRBC hemolytic reaction in SRBC-induced mouse humoral immunity model. The quantitative hemolysis of sheep red blood cells (QHS) assay is an experimental method for evaluating the amount of the antibody secreted, which is based on the principle that the sheep red blood cells are hemolyzed by the anti-SRBC specific antibody secreted by B lymphocytes (plasma cells) to release haemoglobin. After mice are sensitized by sheep red blood cells (SRBC), there will appear cells which can secrete specific antibody in mouse spleen lymphocytes. The Antibody secreted by such cells could hemolyze SRBC with the synergistic action of the complement. Therefore, the amount of the cells secreting the specific antibody can be evaluated by determining the hemolytic degree by spectrophotometry. […] BALB/c mice were randomly divided into 5 groups with 6 mice in each group. […] When immunized, the mice in each group were administered by intraperitoneal injection once daily until 5 days after the immunization. The mice in model control group were administered daily with the solvent. 2. […] Each mice was introperitoneally injected with 0.2 ml of the diluted SRBC for sensitizing. 3. QHS assay was carried out 5 days after the sensitization: The mouse spleen was collected to produce the spleen lymphocytes. […] The mixture was kept at 37° C. for 1 hour, and then centrifugated at 3000 rpm for 10 min. […] The quantitative hemolysis of sheep red blood cells (QHS) assay uses the amount of haemoglobin (OD value) released from the hemolysis of red blood cells by the antibody secreted by B cells to indicate the level of humoral immunity in body. Inhibition of specific antibody-secreting cells %=(OD of model control group-OD of administration group)/(OD of model control group-OD of normal control group)

[5] = system: human rhabdomyosarcoma RH-30 xenograft; experiment: RH-30 xenograft on nude mice; settings: for TV (mm^3) d0: baseline;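 as to all read-outs here: male BALB/cA nude mice with subcutaneous RH-30 tumors, oral dosing versus solvent-fed controls, caliper tumor volume, RTV relative to grouping day, T/C as treated RTV over control RTV ×100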
Text: Animals: BALB/cA nude mice, male, 40-45 days old, body weight: 21±2 g, provided by Shanghai Institute of Materia Medica, Chinese Academy of Sciences. License No.: SCXK (Shanghai) 2004-0002. Animal number in each group: 6 in negative control group, and 6 in administration group.
The amount of inoculated cells was 5×10^6. After the xenograft was formed by inoculation, it was used after passed for 3 generations in nude mice.

[6] = Table 2, 5 mg/kg p.o, 1-5 × 3 w
[7] = Table 2, 10 mg/kg p.o, 1-5 × 3 w

## CO[C@H]1C[C@@H]2CC[C@@H](C)[C@@](O)(O2)C(=O)C(=O)N2CCCC[C@H]2C(=O)O[C@H]([C@H](C)C[C@@H]2CC[C@@H](O)[C@H](OC)C2)CC(=O)[C@H](C)/C=C(\C)[C@@H](O)[C@@H](OC)C(=O)[C@H](C)C[C@H](C)/C=C/C=C/C=C/1C [Rapamycin]
In vivo
  AUC0-t (ng · h/g or ng · h/ml): 1455 ng·h/mL
In vivo; 0.5 h
  Sirolimus concentration, Liver, Mean Value: 473 ng/g
  Sirolimus concentration, Tumor, Mean Value: 20.6 ng/g
In vivo; 2 h
  Sirolimus concentration, Blood Plasma, Mean Value: 121 ng/mL
  Sirolimus concentration, Liver, Mean Value: 193 ng/g
  Sirolimus concentration, Tumor, Mean Value: 50.8 ng/g
In vivo; 5 h
  Sirolimus concentration, Blood Plasma, Mean Value: 84.7 ng/mL
  Sirolimus concentration, Liver, Mean Value: 139 ng/g
  Sirolimus concentration, Tumor, Mean Value: 41.7 ng/g
In vivo; 12 h
  Sirolimus concentration, Liver, Mean Value: 54.2 ng/g
  Sirolimus concentration, Tumor, Mean Value: 33.2 ng/g
In vivo; 48 h
  Sirolimus concentration, Blood Plasma, Mean Value: 4.04 ng/mL
  Sirolimus concentration, Liver, Mean Value: 15.8 ng/g
  Sirolimus concentration, Tumor, Mean Value: 25.9 ng/g
[1]; Table 10, value beyond the >100 μM bound, read-out: Cytotoxicity CC50, value in brackets
  CC50: 3600 µM
[1]; Table 10, read-out: Cytotoxicity CC50
  CC50: > 100 µM
[2]
  IC50: 0.0488 µM
[3]
  average ear swelling degree: 0.076 mm
[4]
  Inhibition of Specific Antibody-secreting cells %: 100%
[4]; model control 0.3887, normal control 0.3036
  Quantitative hemolysis OD Value: 0.3012
[5]; [6]
  Body Weight (g) end: 27.0 g
  Body Weight (g) start: 23.7 g
  RTV: 5.5 ± 1.8
  T/C (%): 61.8%
  TV (mm^3) d21: 650 ± 326 mm^3
  TV (mm^3) d0: 124 ± 65 mm^3
[5]; [7]
  Body Weight (g) end: 25.7 g
  Body Weight (g) start: 23.3 g
  RTV: 3.1 ± 0.7
  T/C (%): 35.7%
  TV (mm^3) d0: 136 ± 57 mm^3
[5]; Table 4, 2.5 mg/kg po, 1-5/2 w
  Body Weight (g) end: 21.8 g
  Body Weight (g) start: 20.2 g
  RTV: 2.8 ± 0.8
  T/C (%): 63.7%
  TV (mm^3) d14: 440 ± 157 mm^3
  TV (mm^3) d0: 164 ± 67 mm^3
[5]; Table 4, 5 mg/kg po, 1-5/2 w
  Body Weight (g) end: 20.3 g
  Body Weight (g) start: 19.8 g
  RTV: 2.4 ± 1.0
  T/C (%): 54.4%
  TV (mm^3) d14: 362 ± 100 mm^3
  TV (mm^3) d0: 159 ± 32 mm^3
